In patent publication US6696467B2, “Quinoline derivatives” (Hoffmann-La Roche Inc., priority 2002, dated 2004):

Target: T1, recombinant mouse NPY5-receptor (mNPY5) (Mus musculus, UniProt O70342)
T1 construct: The full-length cDNA encoding the mouse NPY5 (mNPY5) receptor was amplified from mouse brain cDNA; expressed in transfected cells; membranes used
T1 sequence (O70342 1-466): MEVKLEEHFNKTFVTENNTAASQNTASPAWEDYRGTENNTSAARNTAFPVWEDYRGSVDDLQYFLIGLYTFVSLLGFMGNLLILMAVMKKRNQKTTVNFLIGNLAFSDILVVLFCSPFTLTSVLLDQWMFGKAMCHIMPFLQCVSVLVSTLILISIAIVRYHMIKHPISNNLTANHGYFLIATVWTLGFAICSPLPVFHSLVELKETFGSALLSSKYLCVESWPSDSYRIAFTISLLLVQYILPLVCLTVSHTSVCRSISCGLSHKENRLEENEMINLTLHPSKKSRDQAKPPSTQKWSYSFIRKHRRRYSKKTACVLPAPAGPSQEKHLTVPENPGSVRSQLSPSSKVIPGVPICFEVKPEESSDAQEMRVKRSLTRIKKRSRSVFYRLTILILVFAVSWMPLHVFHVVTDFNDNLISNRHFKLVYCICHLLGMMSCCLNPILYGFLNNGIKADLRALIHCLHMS
Experiment: Radioligand competition binding
Settings: displacement of 100 pM [125I]labelled peptide YY (PYY), membranes of HEK293 cells expressing mNPY5, 1 h at 22° C.
Source text: The full-length cDNA encoding the mouse NPY5 (mNPY5) receptor was amplified from mouse brain cDNA using specific primers, designed based on the published sequence, and Pfu DNA-Polymerase (Stratagene). The amplification product was subcloned into the mammalian expression vector pcDNA3 using Eco RI and XhoI restriction sites. Positive clones were sequenced and one clone, encoding the published sequence (see Borowsky B., et al., Regul. Pept., 75-76:45-53 (1998)) was selected for generation of stable cell clones.
Human embryonic kidney 293 (HEK293) (ATCC No. CRL-1573) cells were transfected with 10 μg mNPY5 DNA using the lipofectamine reagent (Gibco BRL) according to the manufacturer's instruction. Two days after transfection, geneticin selection (1 mg/ml) was initiated and several stable clones were isolated. One clone was further used for pharmacological characterization.
Human embryonic kidney 293 cells (HEK293), expressing recombinant mouse NPY5-receptor (mNPY5) were broken by three freeze/thawing cycles in hypotonic Tris buffer (5 mM, pH 7.4, 1 mM MgCl2), homogenized and centrifuged at 72,000×g for 15 min. […] Protein was determined according to the method of Lowry using bovine serum albumine (BSA) as a standard. […]

SMILES | IC50
Cc1cc(N2CCCC2)c2ccc(NCC(C)C)cc2n1 [Example 2, isobutyl-(2-methyl-4-pyrrolidin-1-yl-quinolin-7-yl)-amine] | 0.7 nM
Cc1cc(N2CCCC2)c2ccc(NC(=O)c3ccco3)cc2n1 [Example 54, furan-2-carboxylic acid (2-methyl-4-pyrrolidin-1-yl-quinolin-7-yl)-amide] | 0.3 nM
